Test results as given in patent US6825230B2, “Spiro and dispiro 1,2,4-trixolane antimalarials” (Medicines for Malaria Venture MMV, priority 2002, dated 2004).
≈ marks a conversion by molar mass, not a printed value. Read-outs that look alike come from different tables or passages of the source.

Key:
[1] = test system: chloroquine-resistant K1 strain of P. falciparum; test: In vitro antimalarial semiautomated microdilution assay ([3H]-hypoxanthine incorporation), K1 strain; type: cell-based, Plasmodium falciparum; details: Plasmodium falciparum
In short: (§1)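 IC50 comes from Logit regression of [3H]-hypoxanthine incorporation data. Intraerythrocytic P. falciparum taken from asynchronous stock cultures is exposed to OZ compounds in a semiautomated microdilution format.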

[2] = test system: chloroquine-sensitive NF54 strain of P. falciparum; test: In vitro antimalarial semiautomated microdilution assay ([3H]-hypoxanthine incorporation), NF54 strain; type: cell-based, Plasmodium falciparum; details: Plasmodium falciparum
In short: as §1

[3] = test system: ANKA strain of P. berghei; test: Single dose STI in vivo screen in infected mice; parameters: species or system Plasmodium berghei; details: for Survival (days) 10 mg/kg po: single 10 mg/kg po in 3% ethanol and 7% Tween 80; for Survival (days) 10 mg/kg po / Survival (days) 10 mg/kg SSV po / Survival (days) 10 mg/kg sc: untreated 6-7 days; for Activity (%) 10 mg/kg po: single 10 mg/kg po in 3% ethanol and 7% Tween 80 on day 1 post-infection; for Activity (%) 10 mg/kg po / Activity (%) 10 mg/kg SSV po / Activity (%) 10 mg/kg sc / Activity (%) 3 mg/kg SSV po: percent reduction in parasitemia on day 3; for Survival (days) 10 mg/kg SSV po: single 10 mg/kg po in SSV; for Activity (%) 10 mg/kg SSV po: single 10 mg/kg po in standard suspending vehicle (SSV) on day 1 post-infection; for Survival (days) 10 mg/kg sc: single 10 mg/kg sc in 3% ethanol and 7% Tween 80; for Activity (%) 10 mg/kg sc: single 10 mg/kg sc in 3% ethanol and 7% Tween 80 on day 1 post-infection; for Survival (days) 3 mg/kg SSV po / Activity (%) 3 mg/kg SSV po: single 3 mg/kg po in SSV
[4] = K1, 72 h, read-out: IC50 (ng/ml) K1, chloroquine-resistant K1 strain, 72 h incubation
[5] = NF54, 72 h, read-out: IC50 (ng/ml) NF54, chloroquine-sensitive NF54 strain, 72 h incubation
[6] = chloroquine-resistant K1 strain, 72 h incubation, read-out: IC50 (ng/ml) K1
[7] = chloroquine-sensitive NF54 strain, 72 h incubation, read-out: IC50 (ng/ml) NF54

Structure (SMILES)	IC50 [1, 4]	IC50 [2, 5]	Survival (days) 10 mg/kg po [3]	Activity (%) 10 mg/kg po [3]	Survival (days) 10 mg/kg SSV po [3]	Activity (%) 10 mg/kg SSV po [3]	Survival (days) 10 mg/kg sc [3]	Activity (%) 10 mg/kg sc [3]	IC50 [1, 6]	IC50 [2, 7]	Survival (days) 3 mg/kg SSV po [3]	Activity (%) 3 mg/kg SSV po [3]
O=C(O)c1ccc(OC[C@H]2CC[C@]3(CC2)OOC2(O3)C3CC4CC(C3)CC2C4)cc1 (stereo partly drawn) [OZ176]	25 ng/mL (≈ 60.3 nM)	35 ng/mL (≈ 84.4 nM)	7.0 days	11%	7.7 days	18%	7.0 days	24%	–	–	–	–
c1ccc(CN2CCC3(CC2)OOC2(O3)C3CC4CC(C3)CC2C4)cc1 (stereo not drawn) [OZ220, Adamantane-2-spiro-3′-8′-benzyl-1′,2′,4′-trioxa-8′-azaspiro[4.5]decane]	–	–	6.0 days	40%	5.3 days	0%	10.0 days	99.95%	6.9 ng/mL (≈ 19.4 nM)	4.9 ng/mL (≈ 13.8 nM)	–	–
O=CN1CCN(C(=O)C[C@H]2CC[C@]3(CC2)OO[C@]2(O3)C3CC4CC(C3)CC2C4)CC1 [OZ294]	–	–	–	–	8.6 days	99.79%	–	–	0.39 ng/mL (≈ 0.932 nM)	0.63 ng/mL (≈ 1.51 nM)	7.4 days	70%
O=C(NC[C@H]1CC[C@]2(CC1)OOC1(O2)C2CC3CC(C2)CC1C3)c1ccncc1 (stereo partly drawn) [OZ255]	–	–	9.0 days	99.61%	8.7 days	99.54%	10.0 days	99.92%	2.2 ng/mL (≈ 5.52 nM)	1.1 ng/mL (≈ 2.76 nM)	–	–
Fc1ccc(OC2CCC3(CC2)OOC2(O3)C3CC4CC(C3)CC2C4)cc1 (stereo not drawn) [OZ193]	5.5 ng/mL (≈ 14.7 nM)	8.3 ng/mL (≈ 22.2 nM)	9.3 days	99.75%	8.0 days	93%	11.0 days	99.92%	–	–	–	–
CCOC(=O)c1ccc([C@H]2CC[C@]3(CC2)OOC2(O3)C3CC4CC(C3)CC2C4)cc1 (stereo partly drawn) [OZ164]	9 ng/mL (≈ 21.8 nM)	> 10 ng/mL	–	11%	5.7 days	0%	–	7%	–	–	–	–
O=C(NC[C@H]1CC[C@]2(CC1)OOC1(O2)C2CC3CC(C2)CC1C3)c1c[nH]cn1 (stereo partly drawn) [OZ263]	–	–	13.0 days	99.53%	13.3 days	99.45%	11.0 days	99.92%	0.84 ng/mL (≈ 2.17 nM)	1.1 ng/mL (≈ 2.84 nM)	–	–
CC(C)(CO)NC(=O)[C@H]1CC[C@]2(CC1)OOC1(O2)C2CC3CC(C2)CC1C3 (stereo partly drawn) [OZ129]	10 ng/mL (≈ 26.4 nM)	> 10 ng/mL	5.3 days	0%	5.7 days	4%	5.7 days	0%	–	–	–	–
Oc1ccc([C@H]2CC[C@]3(CC2)OOC2(O3)C3CC4CC(C3)CC2C4)cc1 (stereo partly drawn) [OZ288]	–	–	–	–	11.0 days	99.96%	–	–	1.7 ng/mL (≈ 4.77 nM)	2.7 ng/mL (≈ 7.57 nM)	8.0 days	82%
OC1(c2nccs2)CCC2(CC1)OOC1(O2)C2CC3CC(C2)CC1C3 (stereo not drawn) [OZ247]	–	–	6.3 days	57%	6.0 days	27%	9.0 days	99.85%	1.8 ng/mL (≈ 4.95 nM)	2.3 ng/mL (≈ 6.33 nM)	–	–
CS(=O)(=O)NC[C@H]1CC[C@]2(CC1)OOC1(O2)C2CC3CC(C2)CC1C3 (stereo partly drawn) [OZ257]	–	–	8.3 days	99.00%	7.7 days	99.49%	9.7 days	99.84%	42 ng/mL (≈ 113 nM)	21 ng/mL (≈ 56.5 nM)	–	–
COCC(=O)N[C@H]1CC[C@]2(CC1)OOC1(O2)C2CC3CC(C2)CC1C3 (stereo partly drawn) [OZ186]	> 10 ng/mL	> 10 ng/mL	8.0 days	87%	9.0 days	96%	8.0 days	67%	–	–	–	–
O=C(OC[C@H]1CC[C@]2(CC1)OOC1(O2)C2CC3CC(C2)CC1C3)n1ccnc1 (stereo partly drawn) [OZ141, cis-Adamantane-2-spiro-3′-1′,2′,4′-trioxaspiro[4.5]decane-8′-methyl imidazole-1-carboxylate]	1.7 ng/mL (≈ 4.38 nM)	1.9 ng/mL (≈ 4.89 nM)	8.0 days	98%	8.0 days	97%	8.7 days	99.89%	–	–	–	–
CCOC(=O)N1C2CCC1CC1(C2)OOC2(O1)C1CC3CC(C1)CC2C3 (stereo not drawn) [OZ110, Adamantane-2-spiro-3′-1′,2′,4′-trioxolane-5′-spiro-3″-8″-ethoxycarbonyl-8″-azabicyclo[3.2.1]octane]	5.3 ng/mL (≈ 14.6 nM)	2.1 ng/mL (≈ 5.78 nM)	6.7 days	50%	5.3 days	0%	7.7 days	97.97%	–	–	–	–
NC(=O)C[C@H]1CC[C@]2(CC1)OOC1(O2)C2CC3CC(C2)CC1C3 (stereo partly drawn) [OZ243]	0.91 ng/mL (≈ 2.83 nM)	1.1 ng/mL (≈ 3.42 nM)	7.3 days	87%	8.7 days	97%	6.3 days	70%	–	–	–	–
